Data reported in patent publication US20060069132A1, “Azolecarboxamide herbicides” (priority 2004, published 2006).

Columns and labels:
[1] = test system: pigweed; assay: Test B pre-/postemergence herbicide test; assay type: in vivo, Amaranthus retroflexus; conditions: for Pigweed plant response rating: postemergence
Summary of the method: (§1)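 Seeds were planted and treated preemergence with compounds formulated in a non-phytotoxic solvent mixture containing surfactant, while plants at the 1- to 4-leaf stage (2 to 18 cm) received postemergence sprays. Flooded paddy plants were grown to the 2-leaf stage. After 13 to 15 days in a greenhouse, injury was visually rated 0–100 against untreated controls.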

[2] = test system: smallflower umbrella sedge; assay: Test C flooded paddy test; assay type: in vivo, Cyperus difformis
[3] = test system: velvetleaf; assay: Test B pre-/postemergence herbicide test; assay type: in vivo, Abutilon theophrasti; conditions: for Velvetleaf plant response rating: postemergence
Summary of the method: as §1

[4] = test system: Surinam grass; assay: Test B pre-/postemergence herbicide test; assay type: in vivo, Urochloa decumbens; conditions: for Surinam Grass plant response rating: postemergence
Summary of the method: as §1

[5] = test system: corn; assay: Test B pre-/postemergence herbicide test; assay type: in vivo, Zea mays; conditions: for Corn plant response rating: postemergence
Summary of the method: as §1

[6] = test system: lambsquarters; assay: Test B pre-/postemergence herbicide test; assay type: in vivo, Chenopodium album; conditions: for Lambsquarters plant response rating: postemergence
Summary of the method: as §1

[7] = test system: barnyardgrass; assay: Test B flooded paddy test; assay type: in vivo, Echinochloa crus-galli; conditions: 1000 g ai/ha, scale 0 to 100 (0 no effect, 100 complete control)
Summary of the method: (§2)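 Paddy species grown to the 2-leaf stage under flooding; blackgrass sprayed postemergence at 2–18 cm (1- to 4-leaf stage). Plants kept in a greenhouse for 13 to 15 days, then visually rated against controls on 0 (no effect) to 100 (complete control).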

[8] = test system: wild oat; assay: Test B postemergence herbicide test; assay type: in vivo, Avena fatua; conditions: postemergence
Summary of the method: (§3)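 Greenhouse test; postemergence application to plants at 1–4 leaves (2–18 cm); paddy species at 2 leaves; evaluated visually vs controls at 13–15 days; scale 0–100 (100 = complete control).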

[9] = test system: blackgrass; assay: Test B postemergence herbicide test; assay type: in vivo, Alopecurus myosuroides; conditions: postemergence, visual rating, scale 0 (no effect) to 100 (complete control)
Summary of the method: as §2

[10] = test system: rice; assay: Test B flooded paddy test; assay type: in vivo, Oryza sativa; conditions: 1000 g ai/ha, scale 0 to 100 (0 no effect, 100 complete control)
Summary of the method: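 Visual ratings, 0 (no effect) to 100 (complete control), made versus controls after 13–15 d greenhouse. Paddy plants treated at 2-leaf stage; postemergence plants at 1- to 4-leaf stage, 2–18 cm tall.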

[11] = test system: ducksalad; assay: Test B flooded paddy test; assay type: in vivo, Heteranthera limosa; conditions: 1000 g ai/ha, scale 0 to 100 (0 no effect, 100 complete control)
Summary of the method: as §2

[12] = test system: wheat; assay: Test B postemergence herbicide test; assay type: in vivo, Triticum aestivum; set-up: key to Wheat plant response rating: 0 = no effect, 100 = complete control; conditions: postemergence
Summary of the method: as §3

[13] = test system: barnyardgrass; assay: Test B pre-/postemergence herbicide test; assay type: in vivo, Echinochloa crus-galli; conditions: for Barnyardgrass plant response rating: postemergence, scale 0 (no effect) to 100 (complete control)
Summary of the method: (§4)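 Test chemicals in a non-phytotoxic solvent mixture with surfactant were applied preemergence to seeded species and postemergence to plants 2-18 cm tall (1- to 4-leaf stage); rice and barnyardgrass were also tested in a flooded paddy at the 2-leaf stage. Visual rating versus controls after 13-15 days in greenhouse, scale 0 (no effect) to 100 (complete control).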

[14] = test system: large crabgrass; assay: Test B pre-/postemergence herbicide test; assay type: in vivo, Digitaria sanguinalis; conditions: for Crabgrass, Large plant response rating: postemergence
Summary of the method: as §1

[15] = test system: ducksalad; assay: Test C flooded paddy test; assay type: in vivo, Heteranthera limosa
[16] = test system: cocklebur; assay: Test B pre-/postemergence herbicide test; assay type: in vivo, Xanthium strumarium; conditions: for Cocklebur plant response rating: postemergence, scale 0 (no effect) to 100 (complete control)
Summary of the method: as §4

[17] = test system: small flower umbrella sedge; assay: Test B flooded paddy test; assay type: in vivo, Cyperus difformis; conditions: 1000 g ai/ha, scale 0 to 100 (0 no effect, 100 complete control)
Summary of the method: as §2

[18] = test system: giant foxtail; assay: Test B pre-/postemergence herbicide test; assay type: in vivo, Setaria faberi; conditions: for Foxtail, Giant plant response rating: postemergence
Summary of the method: as §1

[19] = test system: barnyardgrass; assay: Test C flooded paddy test; assay type: in vivo, Echinochloa crus-galli
Summary of the method: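 Plants were grown to the 1- to 4-leaf stage (2–18 cm) and then treated postemergence, or grown to the 2-leaf stage for the flooded paddy test. They were held in a greenhouse for 12 to 14 days and then scored by eye against controls, where 0 is no effect and 100 is complete control.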

[20] = test system: rice; assay: Test B pre-/postemergence herbicide test; assay type: in vivo, Oryza sativa; conditions: 0 = no effect, 100 = complete control, preemergence
Summary of the method: as §1

[21] = test system: rice; assay: Test C flooded paddy test; assay type: in vivo, Oryza sativa
Summary of the method: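 Postemergence sprays applied to plants 2 to 18 cm tall (1- to 4-leaf stage); paddy species grown to 2-leaf stage under flooding. After 12 to 14 days in greenhouse, visual rating versus untreated controls on 0–100 scale (0 no effect, 100 complete control).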

[22] = test system: morningglory; assay: Test B pre-/postemergence herbicide test; assay type: in vivo, Ipomoea coccinea; conditions: for Morningglory plant response rating: postemergence
Summary of the method: as §4

[23] = 125 g ai/ha, 0 = no effect, 100 = complete control, preemergence
[24] = 500 g ai/ha, visual rating, 0 = no effect, 100 = complete control, preemergence
[25] = 125 g ai/ha, visual rating, scale 0 (no effect) to 100 (complete control)
[26] = 500 g ai/ha, scale 0 to 100, 0 is no effect, 100 is complete control
[27] = 125 g ai/ha, scale 0 to 100 (0 no effect, 100 complete control)
[28] = 250 g ai/ha, scale of 0 to 100, 0 is no effect, 100 is complete control
[29] = 500 g ai/ha, visual rating after 12 to 14 days, scale 0 to 100 (0 no effect, 100 complete control)

CCNC(=O)c1ccc(OC)c(NC(=O)c2cc(C(C)(C)C)nn2CC)n1 [Compound 266]
Pigweed plant response rating (0 to 100 scale) [1, 23]: 100
Plant response rating, Pigweed [1, 24]: 100
Pigweed plant response rating [1, 25]: 20
Pigweed plant response rating [1, 26]: 100
Sedge, Umbrella plant response rating ([2]; 62 g ai/ha, scale 0 to 100): 0
Sedge, Umbrella plant response rating [2, 27]: 20
Sedge, Umbrella plant response rating [2, 28]: 55
Plant response rating, Sedge, Umbrella [2, 29]: 80
Velvetleaf plant response rating (0 to 100 scale) [3, 23]: 20
Plant response rating, Velvetleaf [3, 24]: 100
Velvetleaf plant response rating [3, 25]: 0
Velvetleaf plant response rating [3, 26]: 0
Surinam Grass plant response rating (0 to 100 scale) [4, 23]: 60
Plant response rating, Surinam Grass [4, 24]: 90
Surinam Grass plant response rating [4, 25]: 10
Surinam Grass plant response rating [4, 26]: 20
Corn plant response rating (0 to 100 scale) [5, 23]: 0
Plant response rating, Corn [5, 24]: 90
Corn plant response rating [5, 25]: 0
Corn plant response rating [5, 26]: 0
Lambsquarters plant response rating (0 to 100 scale) [6, 23]: 100
Plant response rating, Lambsquarters [6, 24]: 100
Lambsquarters plant response rating [6, 25]: 60
Lambsquarters plant response rating [6, 26]: 100
Barnyardgrass plant response rating [7]: 80
Oat, Wild plant response rating [8, 25]: 10
Oat, Wild plant response rating [8, 26]: 20
Blackgrass plant response rating ([9]; 125 g ai/ha): 20
Blackgrass plant response rating ([9]; 500 g ai/ha): 20
Rice plant response rating [10]: 80
Ducksalad plant response rating [11]: 90
Wheat plant response rating [12, 25]: 20
Wheat plant response rating [12, 26]: 30
Barnyardgrass plant response rating (0 to 100 scale) [13, 23]: 60
Plant response rating, Barnyardgrass [13, 24]: 80
Barnyardgrass plant response rating ([13]; 125 g ai/ha, visual rating): 0
Barnyardgrass plant response rating ([13]; 500 g ai/ha, visual rating): 0
Crabgrass, Large plant response rating (0 to 100 scale) [14, 23]: 50
Plant response rating, Crabgrass, Large [14, 24]: 100
Crabgrass, Large plant response rating [14, 25]: 0
Crabgrass, Large plant response rating [14, 26]: 0
Ducksalad plant response rating ([15]; 62 g ai/ha, scale 0 to 100): 0
Ducksalad plant response rating [15, 27]: 15
Ducksalad plant response rating [15, 28]: 75
Plant response rating, Ducksalad [15, 29]: 95
Cocklebur plant response rating (0 to 100 scale) [16, 23]: 0
Plant response rating, Cocklebur [16, 24]: 10
Cocklebur plant response rating ([16]; 125 g ai/ha, visual rating): 0
Cocklebur plant response rating ([16]; 500 g ai/ha, visual rating): 0
Sedge, Umbrella plant response rating [17]: 80
Foxtail, Giant plant response rating (0 to 100 scale) [18, 23]: 80
Plant response rating, Foxtail, Giant [18, 24]: 100
Foxtail, Giant plant response rating [18, 25]: 0
Foxtail, Giant plant response rating [18, 26]: 20
Barnyardgrass plant response rating ([19]; 62 g ai/ha, scale 0 to 100 (0 no effect, 100 complete control)): 0
Barnyardgrass plant response rating [19, 27]: 25
Barnyardgrass plant response rating [19, 28]: 50
Plant response rating, Barnyardgrass [19, 29]: 70
Rice plant response rating (0 to 100 scale) ([20]; 125 g ai/ha): 70
Plant response rating, Rice ([20]; 500 g ai/ha, visual rating): 80
Rice plant response rating ([21]; 62 g ai/ha, scale 0 to 100): 0
Rice plant response rating [21, 27]: 10
Rice plant response rating [21, 28]: 65
Plant response rating, Rice [21, 29]: 80
Morningglory plant response rating (0 to 100 scale) [22, 23]: 0
Plant response rating, Morningglory [22, 24]: 10
Morningglory plant response rating [22, 25]: 30
Morningglory plant response rating [22, 26]: 50
